This series is described as follows: Pharmacokinetic study of humans (transdermal TDS E vs. intravenous infusion, serum RIA). The conditions noted are these: human, in vivo. How it is done: Pharmacokinetic Study of Humans
The above-described formulation E was tested on twelve healthy males at the age of 20 to 42 years with normal body weight, whereby for 72 hours in each case, three transdermal formulations of 10 cm^2 each with 5 mg of (R)-(−)-5-(4-methoxyphenyl-3-propoxy)-5-methyl-2-oxazolidinone were simultaneously applied on the lower back area. After 72 hours, the transdermal formulation was removed and within one week of washing-out time, the concentration of the active ingredient in the serum was determined per RIA. The measured serum levels of the active ingredient produced an average transdermal substance flow of 0.49±0.7 μg/cm^2/h, at maximum serum levels of 0.88 ng/ml in the time interval of 29±10 hours.
Based on the pronounced plateau phase, which was achieved after the administration of the TDS, at the time of the reduction of TDS after three days, it was still possible to measure mesopram concentrations in the range of 65±18% of the maximum levels. […] The AUC values as well as other pharmacokinetic parameters are found in Table 3. In a comparison test with intravenous administration of a total of 0.2 mg of (R)-(−)-5-(4-methoxyphenyl-3-propoxy)-5-methyl-2-oxazolidinone within one hour, a multiple of higher serum levels was measured that was […]. One hour after the infusion was completed, the mean serum levels dropped to 1.15±0.44 ng·ml·l. Later on, the serum levels dropped off four hours after completion of the infusion to achieve a level of 0.39±0.17 ng·ml·l, after 8 hours 0.17±0.09 ng·ml·l, and after 24 hours 0.08±0.08 ng·ml·l. The essential pharmacokinetic parameters after i.v. administration of mesopram are depicted in Tab. 3. The comparison test with infusion was performed on the same test subjects as the transdermal administration. […]

As for “(R)-(−)-5-(4-methoxyphenyl-3-propoxy)-5-methyl-2-oxazolidinone [mesopram]”, the “Cl (clearance)” value is 5.1 ± 1.8, the “f (absolute bioavailability)” value is on record as 100% and the “ιη (half-life)” value amounted to 2.5 ± 0.9 h.

These data come from patent publication US20040081682A1, “Transdermal system (tds) that contain inhibitors of phosphodiesterase lV” (priority 2000, published 2004).
